Where a name gives a salt, the structure may show the parent alone. ± gives the standard error.
What was measured:
621-102 (TSC2-deficient) = test: relative viability vs DMSO; higher = less cytotoxic; conditions: serum: 10% FBS, 72 h
621-103 (TSC2-rescued) = test: as above; conditions: serum: 10% FBS, 72 h
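Further: immortalized renal angiomyolipoma cells stably carrying empty vector or TSC2, dosed in 384-well plates in DMEM, viability normalized to vehicle-treated wells within each plate.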

Row | Structure (SMILES) | relative viability (621-102 (TSC2-deficient); 0.0001 µM) [%] | relative viability (621-102 (TSC2-deficient); 0.001 µM) [%] | relative viability (621-102 (TSC2-deficient); 0.01 µM) [%] | relative viability (621-102 (TSC2-deficient); 0.1 µM) [%] | relative viability (621-102 (TSC2-deficient); 1 µM) [%] | relative viability (621-102 (TSC2-deficient); 10 µM) [%] | relative viability (621-103 (TSC2-rescued); 0.0001 µM) [%] | relative viability (621-103 (TSC2-rescued); 0.001 µM) [%] | relative viability (621-103 (TSC2-rescued); 0.01 µM) [%] | relative viability (621-103 (TSC2-rescued); 0.1 µM) [%] | relative viability (621-103 (TSC2-rescued); 1 µM) [%] | relative viability (621-103 (TSC2-rescued); 10 µM) [%]
1 | Cc1ccc(C(=O)N(CCCN)[C@@H](c2oc3cc(Cl)ccc3c(=O)c2Cc2ccccc2)C(C)C)cc1 | 61.7 ± 2.2 | 67.7 ± 4.4 | 75.95 ± 0.11 | 69.9 ± 1.3 | 80.2 ± 2.9 | 1.36 ± 0.19 | 40.45 ± 0.2 | 46.1 ± 0.55 | 59.1 ± 2 | 50.6 ± 1.8 | 47.3 ± 5.6 | 1.36 ± 0.14
2 | CCOC(=O)[C@H](CCc1ccccc1)N[C@@H](C)C(=O)N1[C@H](C(=O)O)C[C@@H]2CCC[C@@H]21 [Ramipril] | 107.5 ± 1 | 108 ± 2.2 | 102.3 ± 0.74 | 106 ± 4.6 | 108 ± 2.3 | 106.9 ± 0.7 | 104 ± 5.8 | 104 ± 2.4 | 92.3 ± 11 | 106 ± 0.85 | 102 ± 5 | 111 ± 1.6
3 | CCCc1nc2c(C)cc(-c3nc4ccccc4n3C)cc2n1Cc1ccc(-c2ccccc2C(=O)O)cc1 [Telmisartan] | 104 ± 2.5 | 104 ± 1.6 | 103 ± 2.6 | 105 ± 1.2 | 112 ± 6.6 | 113.2 ± 0.47 | 101 ± 2.7 | 97.8 ± 4.9 | 95.37 ± 0.79 | 103.34 ± 0.025 | 101 ± 4.2 | 107 ± 2.6
4 | FC(F)c1nc2ccccc2n1-c1nc(N2CCOCC2)nc(N2CCOCC2)n1 [ZSTK474] | 88.8 ± 4.7 | 94.9 ± 1.6 | 89.77 ± 0.68 | 95.7 ± 2 | 91.2 ± 3.4 | 52.1 ± 1.8 | 101 ± 2.4 | 97 ± 3.6 | 103.8 ± 0.79 | 105.3 ± 0.49 | 96.3 ± 2.2 | 49.6 ± 1.3
5 | CCC(C)(Oc1ccc(C2(c3ccc(OC(C)(CC)C(=O)O)cc3)CCCCC2)cc1)C(=O)O (stereo not given) [Clinofibrate] | 99.8 ± 0.13 | 107 ± 1.1 | 99.1 ± 2.4 | 99.1 ± 1.4 | 94.4 ± 4.2 | 107 ± 2.1 | 102.4 ± 0.13 | 93 ± 7.7 | 94.9 ± 0.43 | 105 ± 1.8 | 105 ± 3.6 | 91.3 ± 2.9
6 | CCN(CC)CCOc1ccc(C(=C(Cl)c2ccccc2)c2ccccc2)cc1 [Clomifene citrate (Serophene)] | 108 ± 1.1 | 105 ± 6 | 104 ± 3.9 | 102 ± 2.1 | 105 ± 1.7 | 58.6 ± 10 | 102 ± 3.5 | 99.3 ± 1.9 | 97.2 ± 5.9 | 96.14 ± 0.13 | 101 ± 4.7 | 14 ± 0.71
7 | CCCCCCOC(=O)NC(=N)c1ccc(NCc2nc3cc(C(=O)N(CCC(=O)OCC)c4ccccn4)ccc3n2C)cc1 [BIBR-1048] | 78.58 ± 0.35 | 83.8 ± 4.3 | 90.2 ± 3 | 96.8 ± 4.4 | 107 ± 6.2 | 87.6 ± 3 | 82.2 ± 13 | 80.5 ± 6.2 | 88.7 ± 4.1 | 92.9 ± 8.5 | 72.9 ± 5.4 | 69.4 ± 1.5
8 | NCCc1ccc(O)c(O)c1 [Dopamine HCl] | 97.5 ± 9.6 | 112 ± 3.6 | 107 ± 3 | 105 ± 2.4 | 89.7 ± 7.8 | 74.1 ± 1.9 | 102.3 ± 0.35 | 99.6 ± 4.5 | 99 ± 1.9 | 100.1 ± 1 | 92.8 ± 2 | 95.4 ± 3.1
9 | O=C1c2c(O)ccc(O)c2C(=O)c2c(NCCNCCO)ccc(NCCNCCO)c21 [Mitoxantrone] | 79.5 ± 1.5 | 70.5 ± 3.2 | 65.8 ± 4.4 | 33.21 ± 0.054 | 5.07 ± 0.86 | 2.13 ± 0.16 | 94.9 ± 2.3 | 87.32 ± 0.1 | 90.41 ± 0.1 | 36.95 ± 0.31 | 8.71 ± 0.34 | 3.19 ± 0.27
10 | C[N+]1(C)[C@@H]2C[C@@H](OC(=O)C(O)(c3cccs3)c3cccs3)C[C@H]1[C@@H]1O[C@@H]12 [Tiotropium Bromide hydrate] | 119 ± 6 | 110 ± 3.6 | 116.3 ± 0.16 | 112.5 ± 0.9 | 116 ± 1.3 | 117.1 ± 0.39 | 77.6 ± 0.97 | 97.55 ± 0.64 | 105.9 ± 0.43 | 100 ± 2.9 | 103 ± 3.4 | 103 ± 2.6
11 | O=C1NC(=O)C(c2ccccc2)(c2ccccc2)N1 [Phenytoin] | 109 ± 0.34 | 119 ± 4.6 | 101 ± 3 | 105 ± 1.9 | 97.4 ± 5 | 99.7 ± 1.3 | 105 ± 3.8 | 106 ± 6.7 | 100.3 ± 0.63 | 106 ± 4.5 | 101 ± 3 | 101 ± 7.8
12 | CC(/C=C/C(=O)NO)=C\[C@@H](C)C(=O)c1ccc(N(C)C)cc1 [Trichostatin A] | 113.6 ± 0.35 | 117 ± 1.7 | 117.6 ± 0.42 | 104.3 ± 0.83 | 110 ± 1.2 | 74.9 ± 3.8 | 100.8 ± 0.21 | 101 ± 1.4 | 98.31 ± 0.47 | 99.71 ± 0.22 | 96.9 ± 1.4 | 44.8 ± 2.1
13 | C/C(=C\c1csc(C)n1)[C@@H]1C[C@@H]2O[C@]2(C)CCC[C@H](C)[C@H](O)[C@@H](C)C(=O)C(C)(C)[C@@H](O)CC(=O)O1 [Epothilone B (EPIO906)] | 29.4 ± 1.8 | 29.3 ± 0.11 | 27.3 ± 1.2 | 32.2 ± 1.6 | 35.2 ± 2.2 | 37.6 ± 1.2 | 56.73 ± 0.32 | 48.3 ± 0.41 | 38.2 ± 1 | 35.28 ± 0.27 | 48.9 ± 1.2 | 60.1 ± 1.1
14 | CCCCNc1ccc(C(=O)OCCN(C)C)cc1 [Tetracaine HCl] | 113 ± 2.6 | 105 ± 2.3 | 100 ± 3.7 | 102 ± 3.7 | 102 ± 3.2 | 105 ± 1.1 | 72.9 ± 4.8 | 91.42 ± 0.14 | 90.6 ± 5.6 | 103 ± 6.7 | 78.5 ± 6.8 | 74.1 ± 2.6
15 | N#CCNC(=O)c1ccc(-c2ccnc(Nc3ccc(N4CCOCC4)cc3)n2)cc1 [Cyt387] | 101 ± 5.9 | 109 ± 4.2 | 110 ± 1 | 113 ± 1.4 | 104 ± 0.75 | 73.3 ± 2.2 | 115 ± 0.87 | 105.2 ± 0.63 | 110 ± 1.1 | 110.2 ± 0.81 | 106 ± 3.2 | 83.38 ± 0.51
16 | CN1[C@@H]2C[C@@H](OC(=O)[C@H](CO)c3ccccc3)C[C@H]1[C@@H]1O[C@@H]12 [Scopolamine hydrobromide] | 127 ± 2.7 | 119 ± 5.9 | 120 ± 2.6 | 112 ± 1.9 | 115.3 ± 1.1 | 108 ± 3.8 | 102 ± 4 | 99.3 ± 2 | 96.3 ± 2.5 | 99.3 ± 1.4 | 100 ± 2.1 | 102 ± 1.5
17 | CNC(=C[N+](=O)[O-])NCCSCc1csc(CN(C)C)n1 [Nizatidine] | 102 ± 3 | 100.7 ± 0.45 | 101 ± 2.1 | 95.8 ± 1.8 | 106 ± 3.8 | 103 ± 1.6 | 102.5 ± 0.9 | 92.2 ± 3.2 | 101 ± 4.2 | 97.2 ± 1.6 | 102 ± 3.1 | 98.5 ± 4.4
18 | CC1(C)C(=O)N(CCN2CCC(C(=O)c3ccc(F)cc3)CC2)c2ccccc21 | 102.5 ± 0.86 | 103 ± 1.4 | 97.2 ± 4.5 | 97.5 ± 1.1 | 97 ± 1.2 | 97.4 ± 5.7 | 101 ± 2.5 | 97.9 ± 4.5 | 96.93 ± 0.26 | 101 ± 4.7 | 96.7 ± 2 | 94.8 ± 1.9
19 | COc1ccc(-c2ccc3c(N4CCOCC4)nc(N4C[C@@H](C)O[C@@H](C)C4)nc3n2)cc1CO | 74.3 ± 2.3 | 78 ± 8.3 | 65.8 ± 4.5 | 81.3 ± 2.2 | 70.087 ± 0.057 | 27.6 ± 1.1 | 99.9 ± 3 | 88.657 ± 0.066 | 102.1 ± 0.57 | 104 ± 1.4 | 83.1 ± 2.7 | 41.9 ± 0.85
20 | C=CC(=O)N1CCC[C@@H](n2nc(-c3ccc(Oc4ccccc4)cc3)c3c(N)ncnc32)C1 | 108 ± 3.1 | 99.6 ± 2.7 | 102 ± 1.1 | 108 ± 4.7 | 112.7 ± 0.33 | 110 ± 4.6 | 99.6 ± 3.6 | 97.1 ± 1.7 | 98.8 ± 1.5 | 103 ± 3 | 108.4 ± 0.78 | 105 ± 3.9

— the supplement of paper PMC8960247
